The target of the assay is T1, human CXCR3 (Homo sapiens, UniProt P49682).
T1 construct: expressed in transfected cells
T1 sequence (P49682 1-368): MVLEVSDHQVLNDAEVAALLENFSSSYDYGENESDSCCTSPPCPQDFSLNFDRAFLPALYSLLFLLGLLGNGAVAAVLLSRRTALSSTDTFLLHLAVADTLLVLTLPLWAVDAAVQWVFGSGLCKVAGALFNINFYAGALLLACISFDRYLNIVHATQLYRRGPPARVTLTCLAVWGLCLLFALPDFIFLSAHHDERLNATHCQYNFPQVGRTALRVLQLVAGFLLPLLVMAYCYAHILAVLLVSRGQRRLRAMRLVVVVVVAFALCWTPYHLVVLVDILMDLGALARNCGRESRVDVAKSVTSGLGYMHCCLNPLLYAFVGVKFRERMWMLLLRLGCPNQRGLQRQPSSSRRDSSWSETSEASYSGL
Kind of assay: Inhibition of IP-10-induced transient Ca2+ rise in CXCR3/CHO cells. Type of assay: cell-based. Conditions: human IP-10 30 nM. As for the experimental part: An Inhibitory Experiment Against the Binding of IP-10 and CXCR3 (the Activity of that Ca Ion (Ca^2+) is Raised in Transient and Induced by IP-10)
The CHO cell (CXCR3/CHO cell) which overexpresses human CXCR3 in stable was suspended with Ham's F-12 culture medium and FBS (10%), was rolled up in 96well plate to become 3.0×10^4 cell/well. After the plate was incubated for one day at 37° C., removed the cultural supernatant, added Ham's F-12 culture media (Fura-2AM (5 μM), Probenecid (2.5 mM) and HEPES (20 mM; pH7.4) were included) to 80 μl/well, incubated for one hour at 37° C. in light exclusion state. […] The transient rise of the intracellular Ca^2+ concentration induced by human IP-10 was measured by means of Ca^2+ detector for 96well (made in Hamamatsu Photonics), and the inhibitory rate (%) of the test compound was calculated by the following calculation formula.
Ec: The measured value of the Ca^2+ transient rise induced by IP-10 Ea: The measured value of the Ca^2+ transient rise induced by IP-10 when a test compound was added

Each structure is given as a SMILES string.

This is an account of results in patent publication US20110052612A1, “SPIROPIPERIDINE COMPOUND AND MEDICINAL USE THEREOF” (ONO PHARMACEUTICAL CO., LTD., priority 2005, published 2011).

As a reminder, the IC50 is the concentration needed to halve the response being measured.

`CCCN1C(=O)N(CCc2ccccc2)C=CC12CCN(Cc1ccc(Cl)cc1)CC2` [Example 9, 9-(4-chlorobenzyl)-3-(2-phenylethyl)-1-propyl-1,3,9-triazaspiro[5.5]undec-4-en-2-one] registered an IC50 of 3400 nM.

`C#CCOc1ccc(CN2CCC3(CCCCC3)CC2)cc1` [Example 5, 3-[4-(prop-2-yn-1-yloxy)benzyl]-3-azaspiro[5.5]undecane] yielded an IC50 of 3200 nM.

The compound `O=C1C(Cc2ccccc2)CCC2(CCN(Cc3ccc(Cl)cc3)CC2)N1CC1CC1` (stereo not shown) [Example 15, 3-benzyl-9-(4-chlorobenzyl)-1-(cyclopropylmethyl)-1,9-diazaspiro[5.5]undecan-2-one] had an IC50 of 1100 nM.

In turn, `CCCCN1CCC2(CCN(Cc3ccc(Cl)cc3)CC2)N(C2CCCC2)C1=O` [Example 11, 3-butyl-9-(4-chlorobenzyl)-1-cyclopentyl-1,3,9-triazaspiro[5.5]undecan-2-one] came in with an IC50 of 2100 nM.
